This is an account of results in patent US12303530B2, “Combination therapy of cycloserine and lithium for the treatment of depression” (NEURORIVE INC, priority 2019, dated 2025).

This assay deals with mice (C57BL6). Briefly: forced swimming test (FST). The assay is classed as in vivo, mouse. To be noted: FST in an hour after administration, immobility time measured for the last 4 minutes of 6 minutes. The procedure: In order to test an effect of reducing depression depending on administration of the pharmaceutical composition of the present invention, mice were subjected to a forced swimming test (FST). The FST, which is to measure a coping strategy for acute stress that inevitably occurs, is an animal behavioral experiment commonly used to measure antidepressant effects. To confirm the effect of reducing depression by combined administration of D-cycloserine (DCS) and lithium, 10 ml/kg of the preparation was administered to all groups of mice (C57BL6). […] After 1 hour, the forced swimming test (FST) that measures depression-like behavior was performed on the mice. Specifically, each group of mice was individually placed in a 3 L Pyrex beaker (13 cm in diameter, 24 cm in height), and the beakers were filled with 27.5±1.5° C. of water up to a depth of 9 cm. All mice were forced to swim for 6 minutes, and immobility time was measured for the last 4 minutes of the experiment. The immobility time is defined as the […] time taken while the mouse is floating without struggling or taking only the movement required for keeping the mouse's head above the water surface.

For `N[C@@H]1CONC1=O` [DCS, D-cycloserine], the “immobility in forced swimming test, compared to the control group administered with the vehicle” value is “did not show statistical significance”.

For the molecule `O=C([O-])[O-].[Li+].[Li+]` [Li2CO3, Lithium carbonate], the “immobility in forced swimming test, compared to the control group administered with the vehicle” value is given as “did not show statistical significance”.
